Laboratory results reported in EP4682145A1, “BENZOHETEROCYCLIC COMPOUND, AND PREPARATION METHOD THEREFOR AND USE THEREOF” (Cascade Pharmaceuticals, Inc., priority 2023, dated 2024).

What follows are compounds tested against T1, human FFAR1 (GPR40) (Homo sapiens, UniProt O14842) (assay: NFAT-RE-based reporter gene activity assay (Dual-Glo luciferase) for GPR40 agonistic activity in co-transfected HEK293T cells). Conditions: 4-hour treatment.
T1 construct: Flag; expressed in transfected cells; host or cells: HEK293T
T1 sequence (O14842 whole entry): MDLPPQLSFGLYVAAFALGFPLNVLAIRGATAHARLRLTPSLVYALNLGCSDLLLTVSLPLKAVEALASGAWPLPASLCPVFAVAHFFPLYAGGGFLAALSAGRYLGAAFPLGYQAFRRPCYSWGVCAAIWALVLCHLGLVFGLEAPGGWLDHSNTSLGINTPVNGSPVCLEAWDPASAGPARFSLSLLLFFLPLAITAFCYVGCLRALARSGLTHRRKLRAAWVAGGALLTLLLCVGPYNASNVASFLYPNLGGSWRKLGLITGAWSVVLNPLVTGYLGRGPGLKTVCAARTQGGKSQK
Assay type: cell-based
Text: The pcDNA3.0-flag-FFAR1 (GPR40) plasmid was constructed using conventional molecular cloning methods. The main steps were as follows: The full-length cDNA sequence of human FFAR1 (GPR40) (NM_005303.3) was inserted into the HindIII and XbaI restriction sites of the pcDNA3.0 vector via PCR technology, resulting in the pcDNA3.0-flag-FFAR1 (GPR40) plasmid; pGL4.30 [luc2P NFAT-RE] (# E8481) and pRL-TK (#E2241) plasmids were both purchased from Promega; the plasmids were transformed into DH5α E. coli using the CaCl2 method, further cultured and amplified, and then purified using a plasmid extraction kit (TIANGEN, # DP117) to obtain the corresponding plasmid DNA.
HEK293T cells were seeded in a 96-well plate at a density of 1 × 10^4/well one day prior to plasmid transfection. Cell transfection was performed according to the instructions of the transfection reagent FuGENE® HD (Promega, # E2311). The main steps were as follows: Taking one well as an example, plasmids pcDNA3.0-flag-FFAR1 (GPR40), pGL4.30 [luc2P NFAT-RE], and pRL-TK were added at ratios of 50 ng, 50 ng, and 5 ng, respectively, into 10 µL of Opti-MEM™ I medium (Gibco, #11058021) and mixed thoroughly; then, 0.2 µL of FuGENE® HD was added, mixed thoroughly, and allowed to stand at room temperature for 5 minutes; finally, this 10 µL mixture was added to the cell well containing 100 µL of culture medium. 24 hours after co-transfection, the compounds were serially diluted at half-logarithmic intervals with 1 µM as the highest concentration, resulting in 10 concentration gradients, which were added to the cell culture medium for a 4-hour treatment.
After 4 hours of compound treatment, the cells were assayed according to the instructions of the Dual-Glo® Luciferase Assay System (Promega, # E2940). The main steps were as follows: 50 µL of culture medium was aspirated from each well and discarded, followed by the addition of 50 µL of Dual-Glo® Luciferase Reagent, and the mixture was shaken at room temperature for 10 minutes. Then, 80 µL of the lysate reaction solution was transferred to a white opaque optiPlate-96 well plate, and the luminescence signal of Firefly luciferase (Firefly-Luc) was measured using an MD i3x multifunctional microplate reader. Subsequently, 40 µL of Dual-Glo® Stop & Glo® Reagent was added, and the mixture was shaken at room temperature for 10 minutes. Finally, the luminescence signal of Renilla luciferase (Renilla-Luc) was measured using the MD i3x multifunctional microplate reader. The ratio of Firefly-Luc/Renilla-Luc was used as the compound's agonistic activity toward GPR40, and normalization was performed using the ratio of the solvent DMSO group. A dose-response curve was fitted using a four-parameter model with GraphPad Prism 8.0 software to calculate the EC50 value.

Structure (SMILES)	EC50 [nM]
CSc1cccc(N2CCC(c3oc4cc(C(CC(=O)O)C5CC5)ccc4c3-c3ccc(C(C)(C)C)cc3)CC2)c1 (stereo not drawn) [Compound 26]	100 to 500
CC(C)(C)c1ccc(-c2c(C3CCN(c4cccc(S(C)(=O)=O)c4)CC3)oc3cc(C(CC(=O)O)C4CC4)ccc23)cc1 (stereo not drawn) [Compound 27]	100 to 500
COc1cccc(N2CCC(c3oc4cc([C@@H](CC(=O)O)C5CC5)ccc4c3-c3cccc(C)c3)CC2)c1 [Compound 28]	100 to 500
COc1cccc(-c2c(C3CCN(c4cccc(OC)c4)CC3)oc3cc(C(CC(=O)O)C4CC4)ccc23)c1 (stereo not drawn) [Compound 29]	100 to 500
C=C(C)c1ccc(-c2c(C3CCN(c4cccc(OC)c4)CC3)oc3cc(C(CC(=O)O)C4CC4)ccc23)cc1 (stereo not drawn) [Compound 30]	100 to 500
CSc1cccc(N2CCC(c3oc4cc(C(CC(=O)O)C5CC5)ccc4c3-c3cccc(C(C)(C)C)c3)CC2)c1 (stereo not drawn) [Compound 31]	100 to 500
COc1ccnc(N2CCC(c3oc4cc(C(CC(=O)O)C5CC5)ccc4c3-c3ccc(C(C)(C)C)cc3)CC2)c1 (stereo not drawn) [Compound 32]	100 to 500
COc1cccc(N2CCC(c3oc4cc([C@@H](CC(=O)O)C5CC5)ccc4c3-c3ccc(OC(C)C)cc3)CC2)c1 [Compound 33]	10 to 100
COc1cccc(N2CCC(c3oc4cc([C@@H](CC(=O)O)C5CC5)ccc4c3-c3cccc(NC(C)C)c3)CC2)c1 [Compound 34]	10 to 100
COc1cccc(N2CCC(c3oc4cc(C(CC(=O)O)C5CC5)ccc4c3-c3csc(C)c3)CC2)c1 (stereo not drawn) [Compound 35]	100 to 500
COc1cccc(N2CCC(c3oc4cc(C(CC(=O)O)C5CC5)ccc4c3-c3cnn(C)c3)CC2)c1 (stereo not drawn) [Compound 36]	100 to 500
CCn1cc(-c2c(C3CCN(c4cccc(OC)c4)CC3)oc3cc(C(CC(=O)O)C4CC4)ccc23)cn1 (stereo not drawn) [Compound 37]	100 to 500
CC(C)(C)n1cc(-c2c(C3CCN(c4ccccc4)CC3)oc3cc(C(CC(=O)O)C4CC4)ccc23)cn1 (stereo not drawn) [Compound 39]	100 to 500
CC(C)(C)n1cc(-c2c(C3CCN(c4cccc(F)c4)CC3)oc3cc(C(CC(=O)O)C4CC4)ccc23)cn1 (stereo not drawn) [Compound 41]	100 to 500
CC(C)(C)n1cc(-c2c(C3CCN(c4cccc(OC(F)F)c4)CC3)oc3cc(C(CC(=O)O)C4CC4)ccc23)cn1 (stereo not drawn) [Compound 43]	100 to 500
COc1ccc(C#N)c(N2CCC(c3oc4cc(C(CC(=O)O)C5CC5)ccc4c3-c3cnn(C(C)(C)C)c3)CC2)c1 (stereo not drawn) [Compound 44]	100 to 500
CC(C)(C)n1cc(-c2c(C3CCN(c4cccc(C5CC5)c4)CC3)oc3cc(C(CC(=O)O)C4CC4)ccc23)cn1 (stereo not drawn) [Compound 45]	100 to 500
COc1cccc(N2CCC(c3oc4cc(C(CC(=O)O)C5CC5)ccc4c3-c3cnn(C(C)(C)CF)c3)CC2)c1 (stereo not drawn) [Compound 47]	100 to 500

Same assay, conditions: 4-hour treatment, class symbols

Structure (SMILES)	Efficacy (%)
CSc1cccc(N2CCC(c3oc4cc(C(CC(=O)O)C5CC5)ccc4c3-c3ccc(C(C)(C)C)cc3)CC2)c1 (stereo not drawn) [Compound 26]	†† (150 ≥ Efficacy (%) > 100)
CC(C)(C)c1ccc(-c2c(C3CCN(c4cccc(S(C)(=O)=O)c4)CC3)oc3cc(C(CC(=O)O)C4CC4)ccc23)cc1 (stereo not drawn) [Compound 27]	† (100 ≥ Efficacy (%) > 50)
COc1cccc(N2CCC(c3oc4cc([C@@H](CC(=O)O)C5CC5)ccc4c3-c3cccc(C)c3)CC2)c1 [Compound 28]	††† (Efficacy (%) > 150)
COc1cccc(-c2c(C3CCN(c4cccc(OC)c4)CC3)oc3cc(C(CC(=O)O)C4CC4)ccc23)c1 (stereo not drawn) [Compound 29]	†† (150 ≥ Efficacy (%) > 100)
C=C(C)c1ccc(-c2c(C3CCN(c4cccc(OC)c4)CC3)oc3cc(C(CC(=O)O)C4CC4)ccc23)cc1 (stereo not drawn) [Compound 30]	†† (150 ≥ Efficacy (%) > 100)
CSc1cccc(N2CCC(c3oc4cc(C(CC(=O)O)C5CC5)ccc4c3-c3cccc(C(C)(C)C)c3)CC2)c1 (stereo not drawn) [Compound 31]	†† (150 ≥ Efficacy (%) > 100)
COc1ccnc(N2CCC(c3oc4cc(C(CC(=O)O)C5CC5)ccc4c3-c3ccc(C(C)(C)C)cc3)CC2)c1 (stereo not drawn) [Compound 32]	†† (150 ≥ Efficacy (%) > 100)
COc1cccc(N2CCC(c3oc4cc([C@@H](CC(=O)O)C5CC5)ccc4c3-c3ccc(OC(C)C)cc3)CC2)c1 [Compound 33]	†† (150 ≥ Efficacy (%) > 100)
COc1cccc(N2CCC(c3oc4cc([C@@H](CC(=O)O)C5CC5)ccc4c3-c3cccc(NC(C)C)c3)CC2)c1 [Compound 34]	†† (150 ≥ Efficacy (%) > 100)
COc1cccc(N2CCC(c3oc4cc(C(CC(=O)O)C5CC5)ccc4c3-c3csc(C)c3)CC2)c1 (stereo not drawn) [Compound 35]	†† (150 ≥ Efficacy (%) > 100)
COc1cccc(N2CCC(c3oc4cc(C(CC(=O)O)C5CC5)ccc4c3-c3cnn(C)c3)CC2)c1 (stereo not drawn) [Compound 36]	†† (150 ≥ Efficacy (%) > 100)
CCn1cc(-c2c(C3CCN(c4cccc(OC)c4)CC3)oc3cc(C(CC(=O)O)C4CC4)ccc23)cn1 (stereo not drawn) [Compound 37]	†† (150 ≥ Efficacy (%) > 100)
CC(C)(C)n1cc(-c2c(C3CCN(c4ccccc4)CC3)oc3cc(C(CC(=O)O)C4CC4)ccc23)cn1 (stereo not drawn) [Compound 39]	††† (Efficacy (%) > 150)
CC(C)(C)n1cc(-c2c(C3CCN(c4cccc(F)c4)CC3)oc3cc(C(CC(=O)O)C4CC4)ccc23)cn1 (stereo not drawn) [Compound 41]	†† (150 ≥ Efficacy (%) > 100)
CC(C)(C)n1cc(-c2c(C3CCN(c4cccc(OC(F)F)c4)CC3)oc3cc(C(CC(=O)O)C4CC4)ccc23)cn1 (stereo not drawn) [Compound 43]	†† (150 ≥ Efficacy (%) > 100)
COc1ccc(C#N)c(N2CCC(c3oc4cc(C(CC(=O)O)C5CC5)ccc4c3-c3cnn(C(C)(C)C)c3)CC2)c1 (stereo not drawn) [Compound 44]	†† (150 ≥ Efficacy (%) > 100)
CC(C)(C)n1cc(-c2c(C3CCN(c4cccc(C5CC5)c4)CC3)oc3cc(C(CC(=O)O)C4CC4)ccc23)cn1 (stereo not drawn) [Compound 45]	†† (150 ≥ Efficacy (%) > 100)
COc1cccc(N2CCC(c3oc4cc(C(CC(=O)O)C5CC5)ccc4c3-c3cnn(C(C)(C)CF)c3)CC2)c1 (stereo not drawn) [Compound 47]	†† (150 ≥ Efficacy (%) > 100)
